Results taken from ChEMBL document CHEMBL1150512, “A new class of angiotensin II receptor antagonists with a novel acidic bioisostere” (Bioorg Med Chem Lett, 1995).

What was measured:
[1] = molecular target: T1, Type-1 angiotensin II receptor (Bos taurus, UniProt P25104); test: Displacement of [125 I]-AII (0.2 nM) from bovine adrenal cortical membrane angiotensin II (AII) receptor at 10e-7 M
T1 sequence (P25104 whole entry): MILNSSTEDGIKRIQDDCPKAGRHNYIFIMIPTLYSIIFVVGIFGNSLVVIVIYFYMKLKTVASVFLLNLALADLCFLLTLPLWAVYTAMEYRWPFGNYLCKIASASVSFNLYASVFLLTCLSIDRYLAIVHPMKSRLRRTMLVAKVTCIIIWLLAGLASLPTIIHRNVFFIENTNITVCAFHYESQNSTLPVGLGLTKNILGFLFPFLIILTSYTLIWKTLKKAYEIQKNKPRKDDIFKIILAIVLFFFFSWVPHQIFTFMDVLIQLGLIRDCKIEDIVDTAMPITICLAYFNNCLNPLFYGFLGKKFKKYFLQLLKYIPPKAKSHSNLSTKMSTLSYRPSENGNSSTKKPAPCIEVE

Rattus norvegicus [2] = test: Inhibitory activity against the pressor response induced by Angiotensin II (AII) in conscious rats, at 1 mg/kg p.o. at 7 hr; assay type: functional; conditions: route oral
Rattus norvegicus [3] = test: Inhibitory activity against the pressor response induced by Angiotensin II (AII) in conscious rats, at 1 mg/kg p.o. at 3h; assay type: functional; conditions: route oral
Rattus norvegicus [4] = test: Dose-dependent reduction of blood pressure in spontaneously hypertensive rats administered orally (antihypertensive effect); assay type: functional; conditions: po
Rattus norvegicus [5] = test: Inhibitory activity against the pressor response induced by angiotensin II (AII) in conscious rats, at 1 mg/kg p.o. at 3h; assay type: functional; conditions: route oral
Rattus norvegicus [6] = test: Inhibitory activity against the pressor response induced by angiotensin II (AII) in conscious rats, at 1 mg/kg p.o. at 7 hr; assay type: functional; conditions: route oral
Rattus norvegicus [7] = species: Rattus norvegicus; test: pD2 value of compound was determined; assay type: functional
[8] = Partition coefficient (logP); assay type: physicochemical; conditions: octanol/water
[9] = Percent oral bioavailability examined in rats; assay type: ADME, organism-based; conditions: rat, in vivo
Rattus norvegicus [10] = test: Tested for dose-dependent inhibition of Angiotensin II (AII)-induced pressor response at more than 0.01 mg/kg, p.o.; assay type: functional; conditions: route oral, read-out: ID50 (the source's name)

Row | IC50 [1] | SMILES | inhibition in vivo at 1 mg/kg (Rattus norvegicus [2]) | inhibition in vivo at 1 mg/kg (Rattus norvegicus [3]) | other results
1 | 390 nM | CSc1nc2cccc(C(=O)O)c2n1Cc1ccc(-c2ccccc2-c2noc(O)n2)cc1 | 100% | 100% | –
2 | 42 nM | CCNc1nc2cccc(C(=O)O)c2n1Cc1ccc(-c2ccccc2-c2noc(O)n2)cc1 | 6% | 25% | –
3 | 480 nM | CCSc1nc2cccc(C(=O)O)c2n1Cc1ccc(-c2ccccc2-c2noc(O)n2)cc1 | 100% | 83% | –
4 | 420 nM | CCCc1nc2cccc(C(=O)O)c2n1Cc1ccc(-c2ccccc2-c2noc(O)n2)cc1 | 88% | 100% | –
5 | 850 nM | CCCSc1nc2cccc(C(=O)O)c2n1Cc1ccc(-c2ccccc2-c2noc(O)n2)cc1 | 100% | 80% | –
6 | 420 nM | CCOc1nc2cccc(C(=O)O)c2n1Cc1ccc(-c2ccccc2-c2noc(=O)[nH]2)cc1 [AZILSARTAN] | 100% | 100% | bioavailability [9]: 20%; ED25 (Rattus norvegicus [4]): 0.4 mg/kg; ED50 (Rattus norvegicus [10]): 0.06 mg/kg; pD2 (Rattus norvegicus [7]): 9.93; logP [8]: 0.9

The next lines start with the compound.

Row | SMILES | IC50 [1] | inhibition in vivo at 1 mg/kg (Rattus norvegicus [2]) | inhibition in vivo at 1 mg/kg (Rattus norvegicus [3]) | other results
7 | CCCCc1nc2cccc(C(=O)O)c2n1Cc1ccc(-c2ccccc2-c2noc(O)n2)cc1 | 620 nM | 64% | 68% | –
8 | CCOc1nc2cccc(C(=O)OC(C)OC(=O)OC3CCCCC3)c2n1Cc1ccc(-c2ccccc2-c2nn[nH]n2)cc1 (stereo not given) [CANDESARTAN CILEXETIL] | – | – | – | ED25 (Rattus norvegicus [4]): 0.68 mg/kg
9 | CNc1nc2cccc(C(=O)O)c2n1Cc1ccc(-c2ccccc2-c2noc(O)n2)cc1 | 260 nM | 13% | 14% | –
10 | COc1nc2cccc(C(=O)O)c2n1Cc1ccc(-c2ccccc2-c2noc(O)n2)cc1 | 360 nM | 88% | 90% | –
11 | CCOc1nc2cccc(C(=O)O)c2n1Cc1ccc(-c2ccccc2-c2nnn[nH]2)cc1 [CANDESARTAN] | – | – | – | inhibition in vivo at 1 mg/kg (Rattus norvegicus [5]): 100%; inhibition in vivo at 1 mg/kg (Rattus norvegicus [6]): 92%; pD2 (Rattus norvegicus [7]): 9.97; logP [8]: 0.32
12 | CCCCc1nc(Cl)c(CO)n1Cc1ccc(-c2ccccc2-c2nnn[nH]2)cc1 [LOSARTAN] | – | – | – | inhibition in vivo at 1 mg/kg (Rattus norvegicus [5]): 21%; inhibition in vivo at 1 mg/kg (Rattus norvegicus [6]): 34%
13 | CCc1nc2cccc(C(=O)O)c2n1Cc1ccc(-c2ccccc2-c2noc(O)n2)cc1 | 310 nM | – | 88% | inhibition in vivo at 1 mg/kg (Rattus norvegicus [6]): 67%
14 | CCCOc1nc2cccc(C(=O)O)c2n1Cc1ccc(-c2ccccc2-c2noc(O)n2)cc1 | 790 nM | 100% | 100% | –
